Test results published in patent US20130296434A1, “FORMULATIONS AND METHODS FOR TREATING AMYLOIDOSIS” (Kiacta Sarl, priority 2005, published 2013).

Test: Pharmacokinetics of single and repeated oral doses of PDS in healthy male subjects
Format: in vivo, human
Conditions: for AUC(0-t) / Cmax / Tmax: male, po, n = 6; for AUC(0-t) / Cmax: mean; for Tmax: median
Source text: In the following examples, terms are as defined below. The pharmacokinetic parameters were derived by non-compartmental analysis using WinNonlin® (Pharsight Corp., Mountain View, Calif., USA). • Cmax—the maximum observed plasma concentration. • Tmax—the time of occurrence of Cmax. • AUC0-t—the area under the plasma concentration versus time curve from time zero to the last sampling time at which concentrations were at or above the limit of quantification, calculated by the linear trapezoidal rule. • AUC∞—the area under the plasma concentrations versus time curve from time zero to infinity, calculated from AUC0-t+(Clast/λz), where Clast is the last observed quantifiable concentration and λz is the apparent terminal rate constant. • t1/2 the apparent terminal half-life, calculated from ln 2/λz
The safety, tolerability and pharmacokinetics of PDS following multiple rising oral doses in healthy male adult volunteers is determined. This is a randomized, double-blind, placebo-controlled study to assess the pharmacokinetic profile of single and repeated oral doses of PDS at 400, 800 and 1600 mg in healthy male subjects. PDS is administered as a single oral dose to healthy male subjects at 400, 800 and 1600 mg on Days 1 and 7. Following the single oral administration on Day 1, PDS is administered on Days 2, 3, 4, 5 and 6 at 400, 800 and 1600 mg four times daily, or 1600 mg three times daily. Blood samples are collected through 24 hours after the dose on Day 1, before the first and last doses on Days 2 through 6, and after 48 hours after the final dose on Day 7. Plasma concentrations of PDS are determined using validated HPLC methods. Following single and repeated oral doses of PDS maximum plasma concentrations are generally reached within 0.25 to 1 hour post-dose. The mean half-life (T1/2) ranges from 5 to 20 hours after single or multiple dosing. Accumulation after multiple dosing is consistent with the T1/2 and dosing frequency.

[1] = human, plasma, 400 mg, 400 mg q.i.d. group, Day 1 (single oral administration)
[2] = human, plasma, 400 mg, 400 mg q.i.d., Day 7 (repeated oral administration)
[3] = human, plasma, 800 mg, 800 mg q.i.d. group, Day 1 (single oral administration)
[4] = human, plasma, 800 mg, 800 mg q.i.d., Day 7 (repeated oral administration)
[5] = human, plasma, 1600 mg, 1600 mg q.i.d group, Day 1 (single oral administration)
[6] = human, plasma, 1600 mg, 1600 mg q.i.d, Day 7 (repeated oral administration)
[7] = human, plasma, 1600 mg, 1600 mg t.i.d. group, Day 1 (single oral administration)
[8] = human, plasma, 1600 mg, 1600 mg t.i.d., Day 7 (repeated oral administration)

O=S(=O)([O-])CCCS(=O)(=O)[O-].[Na+].[Na+] [PDS, 1,3-propanedisulfonic acid, disodium salt]
half-life (human, plasma, oral, after single or multiple dosing, 400, 800, 1600 mg, healthy male subjects, range of means, read-out: mean half-life (T1/2)): 300 to 1200 min
AUC(0-t) [1]: 1590 ng·h/mL
Cmax [1]: 496 ng/mL
Tmax [1]: 60 min
AUC(0-t) [2]: 10500 ng·h/mL
Cmax [2]: 995 ng/mL
Tmax [2]: 15 min
AUC(0-t) [3]: 5180 ng·h/mL
Cmax [3]: 2680 ng/mL
Tmax [3]: 15 min
AUC(0-t) [4]: 19900 ng·h/mL
Cmax [4]: 1680 ng/mL
Tmax [4]: 15 min
AUC(0-t) [5]: 8300 ng·h/mL
Cmax [5]: 2800 ng/mL
Tmax [5]: 30 min
AUC(0-t) [6]: 24500 ng·h/mL
Cmax [6]: 5480 ng/mL
Tmax [6]: 15 min
AUC(0-t) [7]: 7090 ng·h/mL
Cmax [7]: 2890 ng/mL
Tmax [7]: 22.5 min
AUC(0-t) [8]: 25800 ng·h/mL
Cmax [8]: 4890 ng/mL
Tmax [8]: 30 min
dose dependence of systemic exposure (AUC0-t and Cmax) (single and repeated oral doses 400, 800, 1600 mg, healthy male subjects): approximately proportional to the administered dose
